Measured values taken from US20090088411A1, “No-donating corticosteroid with improved pharmacokinetic, anti-inflammatory and vasodilatory properties” (Topigen Pharmaceuticals Inc., priority 2007, published 2009).
Where two headings read alike, the source gives them in different places. Marks after values point to notes of the source that are not given here. Blank lines part the entries; values can stand above or below the compound they belong to.

Assays:
[1] = design: species or system humans; conditions: human, in vivo
From the text: (§1) A clinical study was undertaken in humans to test certain aspects of a preferred NO-donating budesonide derivative, TPI-1020, as compared to the corticosteroid, budesonide which was not modified with a NO-donating moiety. Specifically, the objectives of this study were to determine the safety, pharmacodynamic and pharmacokinetic activity of multiple doses of inhaled NO-donating budesonide derivatives compared to that of equimolar doses of inhaled budesonide in subjects with mild asthma who smoke. We chose patients with asthma who smoke since these patients had reported to have not only an increase in eNO but also an increase in neutrophils within their sputum (as described in COPD). While assessing the safety of these compounds in such patients we could thus explore the effects of the same in patients with increased sputum neutrophils.
(§2) Those subjects who completed the 14-day run-in period were assigned to receive either an inhaled version of a compound of the present invention (in this case, budesonide 21-(4′-nitrooxymethyl)benzoate, designated hereafter as “TPI-1020”) or budesonide over a 21-day period. The doses administered were based on equimolar amounts of budesonide and were as follows: budesonide 400 μg bid for 14 days then 800 μg bid for 7 days; TPI-1020: 600 μg bid for 14 days then 1200 μg bid for 7 days. Study treatments were delivered in lactose-based blends using the capsule-based Aeroliser dry powder inhaler. Budesonide capsules (Miflonide®, Novartis Pharmaceuticals) delivered 383 μg as compared to 423 μg of budesonide for TPI-1020 (equivalent to 9.5% more budesonide delivered to the body in the TPI-1020 group). However, the fine particle dose of budesonide was 104 μg for the budesonide capsules and only 78 μg for the TPI-1020 capsules (equivalent to 25% less budesonide delivered to the lung in the TPI-1020 group). No other asthma medication except rescue salbutamol was permitted during the study.
The total number of adverse events reported by patients receiving budesonide and TPI-1020 is graphically depicted in FIG. 1. More specifically, FIG. 1 depicts the total number of either treatment-related or physician-determined adverse events for each drug during the 21 day therapeutic period.

[2] = Supine and standing blood pressure (vital signs), clinical study; format: in vivo, humans; conditions: for change in standing pulse pressure: after 22 days, p=0.015 between groups
Method: as §2

[3] = FEV1 spirometry; format: in vivo, humans; conditions: for FEV1 (ITT, L) / FEV1 (PD, L): mean (SD)
Method: (§3) Although this study was only powered for neutrophils, the following parameters were also evaluated: sputum total cell and differential cell counts, using known methods, on days 0, 15 and day 22; pre-dose FEV1 measurements on days 0, 1, 14, 15 and 22; peak flow measurements throughout the study (miniwright meter); use of daily rescue medication (salbutamol) throughout the study; the response to methacholine challenge test; and the eNO levels (chemiluminescence after reaction with ozone) on days 0, 15 and 22 and plasma CRP levels on days 0, 15 and 22.
as §2

[4] = Peak flow measurements (PEF, miniwright meter); format: in vivo, humans; conditions: mean (SD)
Method: as §3, §2

[5] = test system: sputum neutrophils; assay: Sputum differential cell count: neutrophils; format: in vivo, humans; conditions: for mean sputum neutrophils / decrease in mean sputum neutrophils: post hoc; for median sputum neutrophils: all patients; for decrease in mean sputum neutrophils: over 22 days
From the text: as §1, §3, §2
The sample size was chosen to provide information about the primary study objective (safety) and with the power to detect a 20% difference in the decrease in sputum neutrophils with TPI-1020, versus that occurring with budesonide. There are no published studies in mild smokers with asthma that have described the variability in sputum neutrophils. However, based on the COPD publication by Gamble et al., almost all patients with COPD have increased sputum neutrophils (>20%). We calculated that if 13 subjects per group completed the study, a difference of 20% in neutrophils (%) between groups could be detected with a power of 80%.

[6] = test system: sputum eosinophils; assay: Sputum differential cell count: eosinophils; format: in vivo, humans; conditions: mean (SD)
Method: as §3, §2

[7] = Use of daily rescue medication (salbutamol); format: in vivo, humans; conditions: mean (SD)
Method: as §3, §2

[8] = Methacholine challenge test (PC20); format: in vivo, humans; conditions: mean (SD)
Method: as §3, §2

[9] = Asthma control scoring system questionnaire (ACSS); format: in vivo, humans; conditions: mean (SD)
Method: as §2

[10] = test system: exhaled nitric oxide (eNO); assay: Exhaled NO levels (chemiluminescence); format: in vivo, humans; conditions: for eNO (ppb): mean (SD); for decrease in eNO: equimolar doses, baseline to day 22
Method: as §3, §2

[11] = test system: blood eosinophils; assay: Blood eosinophils; format: in vivo, humans; conditions: mean (SD)
Method: as §2

[12] = test system: blood lymphocytes; assay: Blood lymphocytes; format: in vivo, humans; conditions: mean (SD)
Method: as §2

[13] = test system: C-reactive protein (CRP); assay: Plasma CRP levels; format: in vivo, humans; conditions: for patients in whom CRP decreased: 22 days of therapy compared to baseline; for CRP (mg/L): mean (SD)
Method: as §3, §2

[14] = test system: HPA (hypothalamic-pituitary-adrenal) axis; assay: Morning plasma cortisol level
From the text: (§4) This undesirable HPA axis suppression is typically measured by a reduction in urinary cortisol excretion.
(§5) Safety parameters consisted of adverse events and serious adverse events, vital signs, asthma symptoms, laboratory determinations of CBC, urinalysis, regular blood biochemistry, plasma C-reactive protein (CRP), plasma and urinary free cortisol levels, spirometry and electrocardiograms (ECGs).

[15] = test system: HPA (hypothalamic-pituitary-adrenal) axis; assay: 24-hour urinary free cortisol; conditions: vs baseline
From the text: as §4, §5

[16] = Plasma pharmacokinetic profile after inhalation; format: in vivo, humans
Method: as §2
TPI-1020 was not detected in the plasma of treated subjects at all the time points that were assessed over an 8 hour period on days 1 and 14 and on day 22, approximately 12 hours after the last dose. The budesonide plasma phamacokinetic analysis was different in the TPI-1020 group when compared to the budesonide group (FIG. 6). The Cmax, Tmax, and AUC were, respectively in the TPI-1020 vs. the budesonide treated group. For the data presented in FIG. 6, plasma budesonide was measured over an 8 hour period in budesonide (400 mcg, n=10) and TPI-1020 (600 mcg, n=8) treated patients after the first dose (day 1, dotted line) and day 14 (solid line).

[17] = test system: neutrophils; assay: Guinea pig model of LPS induced lung inflammation; format: in vivo
[18] = test system: HPA (hypothalamic-pituitary-adrenal) axis; conditions: in vivo
From the text: as §4, §5

[19] = test system: HPA (hypothalamic-pituitary-adrenal) axis; conditions: in vivo; remark: listed apart in the source
From the text: as §4, §5

[20] = after 22 days, patients with baseline sputum neutrophils <20% (normal)
[21] = after 22 days, patients with baseline sputum neutrophils >20%
[22] = baseline, patients with baseline sputum neutrophils <20% (normal)
[23] = baseline, patients with baseline sputum neutrophils >20%
[24] = patients with baseline sputum neutrophils >20%
[25] = day 15 versus baseline, p=0.03 between groups

morning plasma cortisol level ([14]; baseline): 13.1 µg/dL
morning plasma cortisol level ([14]; day 15): 10.9 µg/dL
morning plasma cortisol level ([14]; day 22): 11.4 µg/dL
effect on 24-hour urinary free cortisol [15]: significantly decreased
SMILES: CCCC1O[C@@H]2C[C@H]3[C@@H]4CCC5=CC(=O)C=C[C@]5(C)[C@H]4[C@@H](O)C[C@]3(C)[C@]2(C(=O)CO)O1 (stereo partly shown) [budesonide, reference compound]
severe adverse events [1]: one
drug-related adverse events ([1]; 21 days): 9
number of subjects that reported adverse events ([1]; 21 days): 7
total treatment-emergent adverse events ([1]; 21 days): 39
change in standing pulse pressure [2]: +4.85 mmHg
FEV1 (ITT, L) ([3]; Baseline): 3.3 (0.8) L
FEV1 (PD, L) ([3]; Baseline): 3.2 (0.7) L
FEV1 (PD, L) ([3]; Day 1): 3.1 (0.6) L
FEV1 (PD, L) ([3]; Day 14): 3.3 (0.7) L
FEV1 (PD, L) ([3]; Day 15): 3.3 (0.7) L
FEV1 (ITT, L) ([3]; Day 22): 3.3 (0.8) L
FEV1 (PD, L) ([3]; Day 22): 3.3 (0.7) L
PEF (AM, L/min) ([4]; Baseline): 405.5 (91) L/min
PEF (AM, L/min) ([4]; Day 22): 423.4 (89.5) L/min
mean sputum neutrophils [5, 20]: 3.95%
mean sputum neutrophils [5, 21]: 51.9%
mean sputum neutrophils [5, 22]: 4.25%
mean sputum neutrophils [5, 23]: 55.1%
median sputum neutrophils ([5]; day 0 prior to therapy): 39.6%
increase in median sputum neutrophils ([5]; day 0 to day 22, all patients): 3.7%
median sputum neutrophils ([5]; day 22 (end of therapy)): 41.1%
decrease in mean sputum neutrophils [5, 24]: 5.8%
Sputum eos (%) ([6]; Baseline): 2.4 (3.3) %
Sputum eos (%) ([6]; Day 22): 1.0 (1.0) %
Doses of Rescue Rx ([7]; Baseline): 17 (15)
Rescue free days (%) ([7]; Baseline): 40.9 (41) %
Doses of Rescue Rx ([7]; Day 22): 3.5 (4)
Rescue free days (%) ([7]; Day 22): 68.4 (32) %
PC20 (mg/ml) ([8]; Baseline): 1.4 (1.3) mg/ml
PC20 (mg/ml) ([8]; Day 22): 2.0 (1.6) mg/ml
ACSS ([9]; Baseline): 73.1 (14)
ACSS ([9]; Day 22): 82.4 (8.4)
eNO (ppb) ([10]; Baseline): 19 (17.6) ppb
eNO (ppb) ([10]; Day 22): 9.8 (7.6) ppb
decrease in eNO [10]: 9.2 ppb
Blood eos (%) ([11]; Baseline): 2.3 (2.3) %
Blood eos (%) ([11]; Day 22): 2.1 (1.6) %
Blood lymphocytes (%) ([12]; Baseline): 14.9 (13) %
Blood lymphocytes (%) ([12]; Day 22): 22.5 (15.8) %
patients in whom CRP decreased [13]: 33.2%
CRP (mg/L) ([13]; Baseline): 2.7 (4.3) mg/L
CRP (mg/L) ([13]; Day 22): 2.5 (1.4) mg/L
increase in plasma CRP [13, 25]: 0.7 mg/L

TPI-1020 in plasma ([16]; all time points over 8 hours on days 1 and 14, and day 22 about 12 hours after last dose): not detected
AUC of plasma budesonide relative to equimolar budesonide group ([16]; inhaled, equimolar doses): significantly lower AUC values
Cmax of plasma budesonide relative to equimolar budesonide group ([16]; inhaled, equimolar doses): more than five fold lower
AUC of plasma budesonide relative to equimolar budesonide group ([16]; inhaled, equimolar doses, listed as NO-donating budesonide derivative): more than five fold lower
morning plasma cortisol level [18]: 13.7 µg/dL
effect on 24-hour urinary free cortisol [19]: statistically insignificant effects
SMILES: CCCC1O[C@@H]2C[C@H]3[C@@H]4CCC5=CC(=O)C=C[C@]5(C)[C@H]4[C@@H](O)C[C@]3(C)[C@]2(C(=O)COC(=O)c2ccc(CO[N+](=O)[O-])cc2)O1 (stereo partly shown) [TPI-1020, budesonide 21-(4′-nitrooxymethyl)benzoate]
drug-related adverse events [1]: 6
number of subjects that reported adverse events [1]: 6
total treatment-emergent adverse events [1]: 13
change in standing pulse pressure [2]: −9.33 mmHg
decrease in standing diastolic blood pressure ([2]; day 22 versus baseline): 4.0%
decrease in standing systolic blood pressure ([2]; day 22 versus baseline): 9.9%
decrease in supine diastolic blood pressure ([2]; day 22 versus baseline): 3.4%
decrease in supine systolic blood pressure ([2]; day 22 versus baseline): 3.2%
effect on blood pressure values ([2]; over the 22 day period, vs baseline): decreased blood pressure values
FEV1 (ITT, L) ([3]; Baseline): 3.0 (0.5) L
FEV1 (PD, L) ([3]; Baseline): 3.0 (0.6) L
FEV1 (PD, L) ([3]; Day 1): 2.8 (0.6) L
FEV1 (PD, L) ([3]; Day 14): 3.0 (0.6) L
FEV1 (PD, L) ([3]; Day 15): 2.8 (0.7) L
FEV1 (ITT, L) ([3]; Day 22): 3.0 (0.5) L
FEV1 (PD, L) ([3]; Day 22): 3.0 (0.6) L
acute effects on FEV1 over an 8 hour period ([3]; days 1 and 14, TPI-1020 600 mcg vs budesonide 400 mcg): no acute effects on FEV1 when compared to budesonide
PEF (AM, L/min) ([4]; Baseline): 365.1 (93) L/min
PEF (AM, L/min) ([4]; Day 22): 375.3 (97) L/min
mean sputum neutrophils [5, 20]: 17.9%
mean sputum neutrophils [5, 21]: 33.4%
mean sputum neutrophils [5, 22]: 11.5%
mean sputum neutrophils [5, 23]: 50.8%
median sputum neutrophils ([5]; day 0 prior to therapy): 29.8%
decrease in median sputum neutrophils ([5]; day 0 to day 22, all patients): 32.6%
median sputum neutrophils ([5]; day 22 (end of therapy)): 20.1%
decrease in mean sputum neutrophils [5, 24]: 35.8%
patients in whom sputum neutrophils decreased to <30% ([5]; patients with high neutrophils at baseline): 57.1%
Sputum eos (%) ([6]; Baseline): 8.7 (10.8) %
Sputum eos (%) ([6]; Day 22): 3.3 (4.0) %
Doses of Rescue Rx ([7]; Baseline): 14.7 (11)
Rescue free days (%) ([7]; Baseline): 39 (39) %
Doses of Rescue Rx ([7]; Day 22): 3.9 (4.5)
Rescue free days (%) ([7]; Day 22): 63.5 (33) %
PC20 (mg/ml) ([8]; Baseline): 3.5 (5.7) mg/ml
PC20 (mg/ml) ([8]; Day 22): 4.0 (8.9) mg/ml
ACSS ([9]; Baseline): 65 (11.1)
ACSS ([9]; Day 22): 71.5 (16.3)
eNO (ppb) ([10]; Baseline): 29 (27) ppb
eNO (ppb) ([10]; Day 22): 16.9 (14) ppb
decrease in eNO [10]: 12.1 ppb
Blood eos (%) ([11]; Baseline): 2.8 (2.7) %
Blood eos (%) ([11]; Day 22): 1.8 (1.7) %
Blood lymphocytes (%) ([12]; Baseline): 20.3 (16.6) %
Blood lymphocytes (%) ([12]; Day 22): 18.4 (15.4)* %
patients in whom CRP decreased [13]: 69.2%
CRP (mg/L) ([13]; Baseline): 3.6 (3.9) mg/L
CRP (mg/L) ([13]; Day 22): 3.0 (4.5) mg/L
decrease in plasma CRP [13, 25]: 1.4 mg/L
recruitment of neutrophils into the lungs [17]: inhibited the recruitment of neutrophils
